In paper PMC7881642, “Inducing secondary metabolite production of Aspergillus sydowii through microbial co-culture with Bacillus subtilis” (Microbial Cell Factories, 2021):

What was measured:
[1] = molecular target: T1, PTP1b (Homo sapiens, UniProt P18031); experiment: Protein tyrosine phosphatase 1b inhibitory assay (pNPP substrate); type: biochemical; conditions: 37 °C, pH 6.0
T1 sequence (P18031 1-435): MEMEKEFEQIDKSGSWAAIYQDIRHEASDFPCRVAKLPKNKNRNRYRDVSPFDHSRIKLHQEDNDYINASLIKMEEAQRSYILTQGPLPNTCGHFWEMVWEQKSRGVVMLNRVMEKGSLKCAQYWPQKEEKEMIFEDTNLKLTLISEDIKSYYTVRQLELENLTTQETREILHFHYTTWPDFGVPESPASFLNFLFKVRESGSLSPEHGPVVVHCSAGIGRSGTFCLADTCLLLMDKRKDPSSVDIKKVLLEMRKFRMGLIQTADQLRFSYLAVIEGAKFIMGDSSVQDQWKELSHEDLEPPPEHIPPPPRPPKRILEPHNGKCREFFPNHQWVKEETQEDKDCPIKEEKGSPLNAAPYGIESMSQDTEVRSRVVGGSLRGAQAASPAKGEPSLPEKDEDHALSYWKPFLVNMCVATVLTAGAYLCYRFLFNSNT
Protocol: The PTP1b inhibitory activity of the tested compounds was measured at 37 °C using p-nitrophenyl phosphate (pNPP) as the substrate. The reaction was performed in a 96-well plate (final volume of 150 μL) and incubated for 30 min in the assay buffer (50 mM citrate (pH 6.0), 0.1 M NaCl, 1 mM EDTA, and 1 mM dithiothreitol) at 37 °C. Subsequently, the reaction was terminated by the addition of 10 M NaOH and the amount of p-nitrophenyl was determined by measuring the absorbance at 405 nm.

[2] = molecular target: T2, CD45 (Homo sapiens, UniProt P08575); experiment: CD45 inhibitory activity; type: biochemical
T2 sequence (P08575 26-1306): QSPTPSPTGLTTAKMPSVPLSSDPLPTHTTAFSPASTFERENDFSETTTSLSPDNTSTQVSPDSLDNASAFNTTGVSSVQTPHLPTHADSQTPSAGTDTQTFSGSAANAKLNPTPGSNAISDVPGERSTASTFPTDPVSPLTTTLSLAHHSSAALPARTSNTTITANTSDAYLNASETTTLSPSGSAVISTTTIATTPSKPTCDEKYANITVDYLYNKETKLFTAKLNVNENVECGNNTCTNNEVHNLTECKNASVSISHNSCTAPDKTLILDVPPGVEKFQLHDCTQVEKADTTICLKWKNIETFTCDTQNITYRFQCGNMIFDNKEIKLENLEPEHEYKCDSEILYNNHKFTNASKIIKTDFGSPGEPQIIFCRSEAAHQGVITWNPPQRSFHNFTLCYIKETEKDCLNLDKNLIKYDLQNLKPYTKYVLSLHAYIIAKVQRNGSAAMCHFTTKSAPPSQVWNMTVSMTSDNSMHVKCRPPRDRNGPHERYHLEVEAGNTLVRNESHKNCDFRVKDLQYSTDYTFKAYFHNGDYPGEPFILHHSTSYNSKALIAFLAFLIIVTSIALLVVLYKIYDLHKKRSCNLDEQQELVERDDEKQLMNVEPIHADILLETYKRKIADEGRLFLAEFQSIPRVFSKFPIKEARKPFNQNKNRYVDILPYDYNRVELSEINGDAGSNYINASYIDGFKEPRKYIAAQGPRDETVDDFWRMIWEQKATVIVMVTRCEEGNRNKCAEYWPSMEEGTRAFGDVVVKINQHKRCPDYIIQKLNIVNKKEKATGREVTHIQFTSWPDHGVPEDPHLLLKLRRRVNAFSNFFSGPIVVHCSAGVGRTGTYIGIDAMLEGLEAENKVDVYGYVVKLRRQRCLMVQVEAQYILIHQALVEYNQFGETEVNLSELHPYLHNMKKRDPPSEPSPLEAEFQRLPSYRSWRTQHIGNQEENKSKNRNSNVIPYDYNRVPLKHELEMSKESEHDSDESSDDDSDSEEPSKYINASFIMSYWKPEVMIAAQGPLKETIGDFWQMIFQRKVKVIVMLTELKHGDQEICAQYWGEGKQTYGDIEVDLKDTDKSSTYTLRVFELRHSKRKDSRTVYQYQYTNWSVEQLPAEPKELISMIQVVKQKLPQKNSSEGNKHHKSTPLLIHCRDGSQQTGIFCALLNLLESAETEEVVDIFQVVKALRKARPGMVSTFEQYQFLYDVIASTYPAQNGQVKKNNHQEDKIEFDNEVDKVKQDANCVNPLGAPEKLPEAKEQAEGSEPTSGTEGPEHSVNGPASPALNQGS

[3] = molecular target: SHP1 (Homo sapiens, UniProt P29350); experiment: SHP1 inhibitory activity; type: biochemical
[4] = system: fungi; design: method as in PMID 23488669; conditions: cited from earlier work
[5] = system: insulin-stimulated glucose consumption; design: method as in PMID 23647825; conditions: cited from earlier work
[6] = system: B. cereus; design: method as in doi:10.1007/s10600-016-1885-z; conditions: cited from earlier work
[7] = system: S. aureus; design: method as in doi:10.1007/s10600-016-1885-z; conditions: cited from earlier work
[8] = system: nematode; experiment: anti-nematode activity

Sequence of SHP1 (P29350 whole entry): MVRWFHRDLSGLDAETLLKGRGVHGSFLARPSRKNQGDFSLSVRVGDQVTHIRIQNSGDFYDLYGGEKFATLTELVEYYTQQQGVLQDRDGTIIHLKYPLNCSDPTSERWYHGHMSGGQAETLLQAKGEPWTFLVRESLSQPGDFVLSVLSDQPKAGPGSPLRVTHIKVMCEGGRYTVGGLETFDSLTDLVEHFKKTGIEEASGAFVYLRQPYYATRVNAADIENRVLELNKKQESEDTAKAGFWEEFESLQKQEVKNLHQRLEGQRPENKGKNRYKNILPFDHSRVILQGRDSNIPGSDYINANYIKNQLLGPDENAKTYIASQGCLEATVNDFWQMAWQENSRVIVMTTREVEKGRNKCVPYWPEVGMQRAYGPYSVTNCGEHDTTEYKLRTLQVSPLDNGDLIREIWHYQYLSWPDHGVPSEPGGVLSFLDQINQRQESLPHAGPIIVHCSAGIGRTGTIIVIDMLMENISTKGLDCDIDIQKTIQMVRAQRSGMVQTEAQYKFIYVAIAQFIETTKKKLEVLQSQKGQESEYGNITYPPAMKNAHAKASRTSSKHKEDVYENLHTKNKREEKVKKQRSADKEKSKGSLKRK

IC50 [1] [µM]	IC50 [2] [µM]	IC50 [3] [µM]	IC50 [8] [µM]	Compound	antifungal activity MIC [4] [mM]	effect on insulin-stimulated glucose consumption [5]	MIC against B. cereus [6]	MIC against S. aureus [7]
> 20	> 20	> 20		Cc1cc(O)cc(O)c1C(=O)O [N1, Orsellinic acid]				
				CC(C)CCC[C@](C)(O)c1ccc(CO)cc1O [(S)-(+)-sydonol]		potentiated		
7.97	> 20	8.35 ± 0.35		CC(C)CCC[C@](C)(O)c1ccc(C(=O)O)cc1O [N2, Sydonic acid]				
14.2 ± 0.21	16	11.68 ± 0.08		CC(C)CCCC(C)(O)c1ccc(C(=O)NC(CO)C(=O)O)cc1O (centres unmarked) [N7, Serine sydonate]				
15.88 ± 0.13	> 20	> 20	50	CC(C)C(O)CC[C@](C)(O)c1ccc(C(=O)O)cc1O (stereo partly drawn) [N3, (7S)-(−)-10-Hydroxysydonic acid]				

Compound	IC50 [1] [µM]	IC50 [2] [µM]	IC50 [3] [µM]	IC50 [8] [µM]	antifungal activity MIC [4] [mM]	effect on insulin-stimulated glucose consumption [5]	MIC against B. cereus [6]	MIC against S. aureus [7]
C[C@@H]1CCC/C=C/C=C/[C@H](O)C[C@@H](O)C/C=C\C=C\[C@@H](O)C/C=C/C=C\C(=O)O1 [N13, Macrolactin A]	> 20	17.9	14.6 ± 0.39		0.04 to 0.3			
CC(C)(O)CCCC(C)(O)c1ccc(C(=O)O)cc1O (stereo in doubt) [N4, (R)-(−)-Hydroxysydonic acid]	> 20	> 20	15.72 ± 0.11				less than 25 μM	less than 25 μM
